Values of other authors, collected in EP0398143B1, “Labeled chemotactic peptides to image focal sites of infection or inflammation” (THE GENERAL HOSPITAL CORPORATION, priority 1989, dated 1990).
Non-standard residues stand in square brackets, D forms with d. Residues, ends and D or L forms follow the SMILES beside them. *: point of attachment. Nle = CCCC[C@H](N)C(=O)O; For = O=C*

Target: T1, receptors on human neutrophils (Homo sapiens, UniProt P21462)
T1 construct: host or cells: human neutrophils (endogenous receptor)
T1 sequence (P21462 1-350): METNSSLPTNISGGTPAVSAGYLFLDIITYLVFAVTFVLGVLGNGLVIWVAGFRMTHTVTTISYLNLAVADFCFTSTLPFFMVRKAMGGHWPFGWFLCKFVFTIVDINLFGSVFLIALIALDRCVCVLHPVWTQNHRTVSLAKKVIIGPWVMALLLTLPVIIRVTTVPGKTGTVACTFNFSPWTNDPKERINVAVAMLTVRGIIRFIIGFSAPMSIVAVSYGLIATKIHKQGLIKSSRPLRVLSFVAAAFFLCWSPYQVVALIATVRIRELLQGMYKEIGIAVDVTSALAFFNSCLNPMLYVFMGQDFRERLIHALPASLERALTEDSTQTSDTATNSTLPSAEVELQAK
Conditions: peptide labeled with ¹²⁵I at the Tyr residue

binding to receptors on human neutrophils: bind strongly
Structure (SMILES): CCCC[C@H](NC=O)C(=O)N[C@@H](CC(C)C)C(=O)N[C@@H](Cc1ccccc1)C(=O)N[C@@H](CCCC)C(=O)N[C@@H](Cc1ccc(O)cc1)C(=O)N[C@@H](CCCCN)C(=O)O [N-formyl-Nle-Leu-Phe-Nle-Tyr-Lys] (For-[Nle]LF[Nle]YK-OH)
